Source: patent US11230538B2, “Herbicides” (SYNGENTA PARTICIPATIONS AG, priority 2016, dated 2022)

Key:
Type in all cases: in vivo
[1] = tested on: Alopecurus myosuroides (ALOMY); test: B2 Post-emergence herbicidal activity; parameters: key: 5=total damage to plant; 0=no damage to plant; conditions: post-emergence application, rate 1000 g/ha, evaluated after 13 days
In short: (§1)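 Scores run from 0 for undamaged to 5 for fully killed plants, assessed 13 days post-spray. Application was post-emergence at 8 days of growth, using an acetone/water (50:50), 0.5% Tween 20 spray solution; growth at 24 °C day, 16 °C night, 65% humidity.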

[2] = tested on: Triticum aestivium (TRZAW); test: B2 Post-emergence herbicidal activity; parameters: key: 5=total damage to plant; 0=no damage to plant; conditions: post-emergence application, rate 1000 g/ha, evaluated after 13 days
In short: as §1

[3] = tested on: Setaria fabenri (SETFA); test: B2 Post-emergence herbicidal activity; parameters: key: 5=total damage to plant; 0=no damage to plant; conditions: post-emergence application, rate 1000 g/ha, evaluated after 13 days
In short: as §1

[4] = tested on: Avena fatua (AVEFA); test: B2 Post-emergence herbicidal activity; conditions: post-emergence application, rate 1000 g/ha, evaluated after 13 days
Procedure: (§2) Seeds of a variety of test species were sown in standard soil in pots: Triticum aestivium (TRZAW), Avena fatua (AVEFA), Alopecurus myosuroides (ALOMY), Echinochloa crus-galli (ECHCG), Lolium perenne (LOLPE), Zea Mays (ZEAMX), Abutilon theophrasti (ABUTH), Amaranthus retroflexus (AMARE) and Setaria fabenri (SETFA). After 8 days cultivation (post-emergence) under controlled conditions in a glasshouse (at 24/16° C., day/night; 14 hours light; 65% humidity), the plants were sprayed with an aqueous spray solution derived from the formulation of the technical active ingredient in acetone I water (50:50) solution containing 0.5% Tween 20 (polyoxyethelyene sorbitan monolaurate, CAS RN 9005-64-5). The test plants were then grown in a glasshouse under controlled conditions (at 24/16° C., day/night; 14 hours light; 65% humidity) and watered twice daily. After 13 days, the test was evaluated (5=total damage to plant; 0=no damage to plant).

[5] = tested on: Lolium perenne (LOLPE); test: B1 Pre-emergence herbicidal activity; parameters: key to Pre-emergence herbicidal activity, LOLPE (damage score 0-5): 5=total damage to plant; 0=no damage to plant; conditions: pre-emergence application, rate 1000 g/ha, evaluated after 13 days
In short: (§3)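 Test species received a pre-emergence application one day post-sowing in an acetone/water solution with 0.5% Tween 20. Phytotoxicity was assessed 13 days later on a scale where 0 means no damage and 5 total plant death.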

[6] = tested on: Setaria fabenr (SETFA); test: B1 Pre-emergence herbicidal activity; parameters: key to Pre-emergence herbicidal activity, SETFA (damage score 0-5): 5=total damage to plant; 0=no damage to plant; conditions: pre-emergence application, rate 1000 g/ha, evaluated after 13 days
In short: as §3

[7] = tested on: Echinochloa crus-galli (ECHCG); test: B2 Post-emergence herbicidal activity; parameters: key to Post-emergence herbicidal activity, ECHCG (damage score 0-5): 5=total damage to plant; 0=no damage to plant; conditions: post-emergence application, rate 1000 g/ha, evaluated after 13 days
In short: as §1

[8] = tested on: Alopecurus myosuroides (ALOMY); test: B1 Pre-emergence herbicidal activity; parameters: key: 5=total damage to plant; 0=no damage to plant; conditions: pre-emergence application, rate 1000 g/ha, evaluated after 13 days
In short: as §3

[9] = tested on: Triticum aestivium (TRZAW); test: B1 Pre-emergence herbicidal activity; parameters: key: 5=total damage to plant; 0=no damage to plant; conditions: pre-emergence application, rate 1000 g/ha, evaluated after 13 days
In short: as §3

[10] = tested on: Avena fatua (AVEFA); test: B1 Pre-emergence herbicidal activity; parameters: key: 5=total damage to plant; 0=no damage to plant; conditions: pre-emergence application, rate 1000 g/ha, evaluated after 13 days
In short: as §3

[11] = tested on: Lolium perenne (LOLPE); test: B2 Post-emergence herbicidal activity; conditions: post-emergence application, rate 1000 g/ha, evaluated after 13 days
Procedure: as §2

[12] = tested on: Echinochloa crus-galli (ECHCG); test: B1 Pre-emergence herbicidal activity; parameters: key to Pre-emergence herbicidal activity, ECHCG (damage score 0-5): 5=total damage to plant; 0=no damage to plant; conditions: pre-emergence application, rate 1000 g/ha, evaluated after 13 days
In short: as §3

Row | SMILES | Post-emergence herbicidal activity, ALOMY (damage score 0-5) [1] | Post-emergence herbicidal activity, TRAZW (damage score 0-5) [2] | Post-emergence herbicidal activity, SETFA (damage score 0-5) [3] | Post-emergence herbicidal activity, AVEFA (damage score 0-5) [4] | Pre-emergence herbicidal activity, LOLPE (damage score 0-5) [5] | Pre-emergence herbicidal activity, SETFA (damage score 0-5) [6] | Post-emergence herbicidal activity, ECHCG (damage score 0-5) [7] | Pre-emergence herbicidal activity, ALOMY (damage score 0-5) [8] | Pre-emergence herbicidal activity, TRAZW (damage score 0-5) [9] | Pre-emergence herbicidal activity, AVEFA (damage score 0-5) [10] | Post-emergence herbicidal activity, LOLPE (damage score 0-5) [11] | Pre-emergence herbicidal activity, ECHCG (damage score 0-5) [12]
1 | CC(C)C(=O)N(CC#N)c1ccc(-c2cncc(F)c2)nc1C(F)(F)F [Compound C58] | 0 | 0 | 5 | 2 | 0 | 5 | 4 | 0 | 0 | 0 | 1 | 3
2 | CCCCC(=O)Nc1ccc(-c2cncc(F)c2)nc1C(F)(F)F [Compound C49] | 1 | 0 | 5 | 4 | 1 | 5 | 5 | 1 | 0 | 2 | 3 | 5
3 | CC(C)=CC(=O)Nc1ccc(-c2cncc(F)c2)nc1C(F)(F)F [Compound C37] | 0 | 0 | 5 | 3 | 1 | 5 | 5 | 0 | 0 | 1 | 2 | 4
4 | COCC(=O)N(CC1CC1)c1ccc(-c2cncc(F)c2)nc1C(F)(F)F [Compound C80] | 1 | 1 | 5 | 2 | 0 | 3 | 3 | 0 | 0 | 1 | 1 | 2
5 | CC(C)C(=O)Nc1ccc(-c2cncc(C#N)c2)nc1C(F)(F)F [Compound C11] | 1 | 0 | 5 | 2 | 1 | 4 | 3 | 0 | 0 | 0 | 1 | 1
6 | CCC(=O)N(Cc1ccncc1)c1ccc(-c2cncc(F)c2)nc1C(F)(F)F [Compound C70] | 0 | 0 | 3 | 2 | 1 | 2 | 2 | 0 | 0 | 1 | 1 | 2
7 | COCC(=O)Nc1ccc(-c2cncc(F)c2)nc1C(F)(F)F [Compound C27] | 1 | 1 | 5 | 4 | 1 | 5 | 5 | 0 | 0 | 3 | 3 | 5
8 | O=C(Nc1ccc(-c2cncc(F)c2)nc1C(F)(F)F)c1cccs1 [Compound C47] | 1 | 0 | 5 | 4 | 1 | 4 | 5 | 1 | 0 | 2 | 3 | 5
9 | CC(C)=CC(=O)N(C(=O)C=C(C)C)c1ccc(-c2cncc(F)c2)nc1C(F)(F)F [Compound C38] | 0 | 0 | 5 | 3 | 0 | 5 | 4 | 0 | 0 | 0 | 2 | 4
10 | O=C(Nc1ccc(-c2cncc(F)c2)nc1C(F)(F)F)C1CC1 [Compound C59] | 1 | 0 | 4 | 3 | 1 | 5 | 5 | 0 | 0 | 3 | 3 | 4
11 | CC(C)C(=O)Nc1ccc(-c2cncnc2)nc1C(F)(F)F [Compound C8] | 3 | 2 | 5 | 4 | 2 | 5 | 4 | 0 | 0 | 3 | 2 | 4
